Test results published in patent publication US9242970B2 (ACTELION PHARMACEUTICALS LTD., priority 2010, dated 2016).
pIC50: −log10 of the molar value. Where two headings read alike, the source gives them in different places.

Assays:
[1] = target: human orexin-2 receptor (Homo sapiens (Human), UniProt O43614); experiment: In vitro assay: intracellular calcium measurements (FLIPR), antagonistic activity; format: cell-based; conditions: CHO cells, 3 nM orexin-A, marked values are geometric means of n = 2-6, read-out: IC50 OX2
[2] = target: human orexin-1 receptor (Homo sapiens (Human), UniProt O43613); experiment: as above; format: cell-based; conditions: CHO cells, 3 nM orexin-A, marked values are geometric means of n = 2-6, read-out: IC50 OX1
[3] = compound incubation time of 10 min

Chain of human orexin-2 receptor (O43614 whole entry): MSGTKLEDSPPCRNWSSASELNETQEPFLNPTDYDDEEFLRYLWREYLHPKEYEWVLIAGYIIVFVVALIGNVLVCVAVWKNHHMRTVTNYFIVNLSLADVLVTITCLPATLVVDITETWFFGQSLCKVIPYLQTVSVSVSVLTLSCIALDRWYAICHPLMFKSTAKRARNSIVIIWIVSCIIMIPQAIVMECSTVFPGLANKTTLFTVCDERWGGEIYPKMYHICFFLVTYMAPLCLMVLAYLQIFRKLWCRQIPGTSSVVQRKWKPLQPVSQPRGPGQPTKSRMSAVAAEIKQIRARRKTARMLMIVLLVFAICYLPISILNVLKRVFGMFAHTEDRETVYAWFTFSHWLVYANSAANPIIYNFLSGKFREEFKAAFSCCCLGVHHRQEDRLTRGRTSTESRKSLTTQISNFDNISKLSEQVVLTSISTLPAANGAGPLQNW
Chain of human orexin-1 receptor (O43613 whole entry): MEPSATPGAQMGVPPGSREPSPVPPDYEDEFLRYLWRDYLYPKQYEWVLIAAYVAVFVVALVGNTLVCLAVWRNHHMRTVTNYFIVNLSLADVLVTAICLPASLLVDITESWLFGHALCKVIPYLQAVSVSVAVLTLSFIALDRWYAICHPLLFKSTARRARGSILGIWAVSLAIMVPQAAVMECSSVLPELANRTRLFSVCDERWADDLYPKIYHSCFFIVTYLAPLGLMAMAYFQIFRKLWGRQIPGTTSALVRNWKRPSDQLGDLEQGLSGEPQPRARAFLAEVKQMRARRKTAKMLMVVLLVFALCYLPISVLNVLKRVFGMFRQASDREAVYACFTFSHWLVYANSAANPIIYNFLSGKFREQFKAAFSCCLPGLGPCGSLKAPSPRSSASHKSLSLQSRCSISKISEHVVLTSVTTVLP

Structure (SMILES) | pIC50 ([1]; compound incubation 120 min) | pIC50 ([2]; compound incubation 120 min) | pIC50 [1, 3] | pIC50 [2, 3]
COc1cccc(OC)c1C1CCCC(=O)N1Cc1ccc2nc(C)sc2c1 (centres unmarked) [Example 47, 6-(2,6-dimethoxyphenyl)-1-((2-methylbenzo[d]thiazol-6-yl)methyl)piperidin-2-one] | 6.78 | 6.73 |  | 
CCOc1cccc(F)c1C1CC(C)C(=O)N1Cc1ccnc(-c2ncc(C)s2)c1 (centres unmarked) [Example 380, 5-(2-ethoxy-6-fluorophenyl)-3-methyl-1-((2-(5-methylthiazol-2-yl)pyridin-4-yl)methyl)pyrrolidin-2-one] | 8.70 | 6.88 |  | 
COc1cc(F)cc(OC)c1C1CCCC(=O)N1Cc1cccc(-c2ccccc2)c1 (centres unmarked) [Example 234, 1-([1,1′-biphenyl]-3-ylmethyl)-6-(4-fluoro-2,6-dimethoxyphenyl)piperidin-2-one] | 6.63 | 6.58 |  | 
COc1cncc(OC)c1C1CCCC(=O)N1Cc1csc(-c2ccccc2)n1 (centres unmarked) [Example 64, 6-(3,5-dimethoxypyridin-4-yl)-1-((2-phenylthiazol-4-yl)methyl)piperidin-2-one] | 6.61 | 6.21 |  | 
COc1cccc(OC)c1C1CCCC(=O)N1Cc1ccc(OC(F)(F)F)c(F)c1 (centres unmarked) [Example 160, 6-(2,6-dimethoxyphenyl)-1-(3-fluoro-4-(trifluoromethoxy)benzyl)piperidin-2-one] |  |  | 7.74 | 6.62
COc1ccnc(OC)c1C1CCCC(=O)N1Cc1csc(-c2ccccc2)n1 (centres unmarked) [Example 56, 6-(2,4-dimethoxypyridin-3-yl)-1-((2-phenylthiazol-4-yl)methyl)piperidin-2-one] | 8.22 | 6.85 |  | 
COc1ccc2ccccc2c1C1CCCC(=O)N1Cc1cccc(-c2ncccn2)c1 (centres unmarked) [Example 445, 6-(2-methoxynaphthalen-1-yl)-1-(3-(pyrimidin-2-yl)benzyl)piperidin-2-one] | 7.05 | 7.68 |  | 
COc1cccc(OC)c1C1CCCC(=O)N1Cc1cccc(-c2cncs2)c1 (centres unmarked) [Example 42, 6-(2,6-dimethoxyphenyl)-1-(3-(thiazol-5-yl)benzyl)piperidin-2-one] | 7.77 | 7.60 |  | 
CCOc1cc(F)ccc1[C@@H]1C[C@@H](Cl)C(=O)N1Cc1ccc(OC(F)(F)F)cc1 (racemic) [Example 341] | 5.79 | 5.48 |  | 
CCOc1cccc(F)c1C1CC(C)C(=O)N1Cc1ccc2ccccc2n1 (centres unmarked) [Example 379, 5-(2-ethoxy-6-fluorophenyl)-3-methyl-1-(quinolin-2-ylmethyl)pyrrolidin-2-one] | 7.15 | 6.00 |  | 
COc1cccc(F)c1C1CC(C)C(=O)N1Cc1ccc2ccccc2n1 (centres unmarked) [Example 359, 5-(2-fluoro-6-methoxyphenyl)-3-methyl-1-(quinolin-2-ylmethyl)pyrrolidin-2-one] | 6.48 | 5.77 |  | 
COc1ncnc(OC)c1C1CCCC(=O)N1Cc1cccc(-c2csc(C)n2)c1 (centres unmarked) [Example 269, 6-(4,6-dimethoxypyrimidin-5-yl)-1-(3-(2-methylthiazol-4-yl)benzyl)piperidin-2-one] | 6.21 | 5.99 |  | 
COc1c(F)ccc(F)c1[C@@H]1C[C@@H](O)C(=O)N1Cc1ccc(OC(F)(F)F)cc1 (racemic) [Example 313, rac-(3R*,5S*)-5-(3,6-difluoro-2-methoxyphenyl)-3-hydroxy-1-(4-(trifluoromethoxy)benzyl)pyrrolidin-2-one] | 5.99 | 5.84 |  | 
COc1cccc(OC)c1C1CCC(=O)N1Cc1cccc(-c2nccs2)c1 (centres unmarked) [Example 124, 5-(2,6-dimethoxyphenyl)-1-(3-(thiazol-2-yl)benzyl)pyrrolidin-2-one] | 7.05 | 7.64 |  | 
COc1cccc(OC)c1C1CCCC(=O)N1Cc1cccc(-c2ccccc2)n1 (centres unmarked) [Example 11, 6-(2,6-dimethoxyphenyl)-1-((6-phenylpyridin-2-yl)methyl)piperidin-2-one] | 7.37 | 7.47 |  | 
COc1cccc(OC)c1C1CCCC(=O)N1Cc1cccc(-c2csc(C)n2)c1 (centres unmarked) [Example 16, 6-(2,6-dimethoxyphenyl)-1-(3-(2-methylthiazol-4-yl)benzyl)piperidin-2-one] | 8.70 | 8.52 |  | 
